Measured values taken from paper PMC10747733, “N-Substituted 2-(Benzenosulfonyl)-1-Carbotioamide Derivatives Exert Antimicrobial and Cytotoxic Effects via Aldehyde Dehydrogenase Pathway: Synthesis, In Silico and In Vitro Studies” (Pharmaceuticals, 2023).
Values joined by “and” are separate entries in the source; they are usually repeats but may differ in a detail not shown here. Identical values can stand only once.

Legend:
Assay type in all cases: cell-based, human
[1] = test system: HepG2 (hepatocellular carcinoma); assay: MTT antiproliferative activity assay; settings: for TI after 24h / TI after 48h: IC50 WS1 / IC50 HepG2
Protocol: (§1) Cancer cell lines originating from different organs, i.e., AGS (stomach—gastric adenocarcinoma), HepG2 (hepatocellular carcinoma), Du145, PC3 (prostate cancer), 769-P (renal cell carcinoma) and physiology cell line WS1 (fibroblasts), were purchased from ATCC. The cell cultures were carried out in an appropriate medium (DMEM or MEM) containing 10% heat-inactivated FBS with penicillin (100 U/mL) and streptomycin (100 U/mL). The cells were kept in a humidified incubator at 37 °C and 5% CO2 and passaged three times before experimenting.
(§2) The antiproliferative properties test for each cancer line was performed in 96-well plates, in which cells with a density of 2 × 10^4 were seeded in 100 µL of medium containing 10% FBS. After 24 h of allowing the cells to attach, the wells were washed with DPBS (Dulbecco’s phosphate-buffered saline) solution and the cells were incubated in fresh medium w/o FBS containing 1 µM, 10 µM, 50 µM, 200 µM or 500 µM of the tested compounds for 24 and 48 h. All substances were first dissolved in DMSO to prepare stock solutions that were then diluted in the medium to obtain a maximum of 0.1% w/v DMSO in the final solution. Each concentration was tested in triplicate. DMSO at a concentration of 0.1% in the medium was also used as a negative control. The antiproliferative activity of the compounds was tested using the MTT test. After each incubation time, the medium containing the test compounds and the negative control was removed, the cells were washed with DPBS solution, and then 100 µL of FBS-free and antibiotic-free fresh medium containing 0.5 mg/mL MTT was added to each well. The plates were incubated for 3 h in an incubator at 37 °C and 5% CO2. After incubation, the medium was removed, the cells were washed with 100 µL of PBS, and 100 µL of DMSO was added to each well to dissolve the purple formazan. The plate was shaken for 3 min and the absorbance was read at 570 nm (BioTek Synergy H1 microplate reader). Cell viability was calculated from the mean of the OD readings. Based on the dose–response curve, IC50 values were calculated (MS Excel). […] Therapeutic index (TI) results were calculated as the ratio of the IC50 of physiological cells to the IC50 of tumor cells.

[2] = test system: WS1 (fibroblasts); assay: MTT antiproliferative activity assay; settings: for concentration at which a statistically significant decrease in viability was observed: tested 1–500 µM
Protocol: as §1, §2

[3] = test system: 769-P (renal cell carcinoma); assay: MTT antiproliferative activity assay; settings: for decrease in viability: 769-P; for TI after 24h / TI after 48h: IC50 WS1 / IC50 769-P
Protocol: as §1, §2

[4] = test system: PC3 (prostate cancer); assay: MTT antiproliferative activity assay; settings: for TI after 24h / TI after 48h: IC50 WS1 / IC50 PC3
Protocol: as §1, §2

[5] = test system: Du145 (prostate cancer); assay: MTT antiproliferative activity assay; settings: for TI after 24h / TI after 48h: IC50 WS1 / IC50 DU145; for concentration at which a statistically significant decrease in viability was observed: tested 1–500 µM
Protocol: as §1, §2

[6] = test system: AGS (gastric adenocarcinoma); assay: MTT antiproliferative activity assay; settings: for decrease in viability: AGS; for TI after 24h / TI after 48h: IC50 WS1 / IC50 AGS
Protocol: as §1, §2

[7] = test system: ALDH1A1; assay: ALDH1A1 concentration by ELISA in 769-P cells
Protocol: The effect of compounds WZ1–WZ4 on ALDHA1 levels was investigated (Figure 10). The Du145, HepG2 and 769-P cell lines were treated with the calculated IC25 values for each compound.
Selected cell lines, viz HepG2, Du145 and 769-P, were seeded into 6-well plates and incubated for 24 h after seeding with compounds at a concentration equal to IC25. After a further 24 h or 48 h, cells were detached with trypsin and centrifuged. The resulting cell pellet was resuspended in 0.5 mL PBS. The samples were then sonicated, and protein was determined using the Bradford method (Bio-rad; Hercules, CA, USA). Samples were equilibrated to 10 mg/mL of protein, and ALDH1A1 was determined in the samples prepared in this way. ALDH1A1 determination was performed using an ELISA (SEE824Hu; Cloud Clone Corp., Katy, TX, USA), according to the manufacturer’s protocol.

**Q.** Which results are given for `CCCCNC(=S)NNS(=O)(=O)c1ccccc1` [WZ2, 2-(Benzenesulfonyl)-N-Butylhydrazine-1-Carbothioamide]?
**A.** decrease in viability ([1]; HepG2, 24 h, 500 µM): ~ 22%; viability (decreased to) ([1]; HepG2, 48 h, 1 µM): ~ 82%; TI after 24h ([1]; 24 h): 205,540,220.291; TI after 48h ([1]; 48 h): 15,880.957; concentration at which a statistically significant decrease in viability was observed ([2]; 24 h): no reduction in viability; decrease in viability ([2]; 48 h, 200 µM): ~ 17%; decrease in viability ([2]; 48 h, 500 µM): ~ 23%; decrease in viability ([3]; 24 h, 1 µM): ~ 8%; decrease in viability ([3]; 48 h, 1 µM): ~ 10%; TI after 24h ([3]; 24 h): 753,464,970.626; TI after 48h ([3]; 48 h): 67,951.475; TI after 24h ([4]; 24 h): 289,230,463.397; TI after 48h ([4]; 48 h): 224,184.286; viability (reduced to) ([4]; PC3, 24 h, 200 µM): ~ 82%; viability (reduced to) ([4]; PC3, 48 h, 50 µM): ~ 88%; viability at 50 µM ([5]; Homo sapiens, DU-145, Du145, 24 h, 50 µM, read-out: viability (dropped to)): ~80%; viability at 1 µM ([5]; Homo sapiens, DU-145, Du145, 48 h, 1 µM, read-out: viability (dropped to)): ~92%; TI after 24h ([5]; 24 h): 2,352,384.152; TI after 48h ([5]; 48 h): 28.982; decrease in viability ([6]; 24 h, 1 µM): ~ 8%; decrease in viability ([6]; 48 h, 1 µM): ~ 6%; TI after 24h ([6]; 24 h): 1,905,977,431.260; TI after 48h ([6]; 48 h): 0.368; ALDH1A1 concentration compared to control ([7]; compound at IC25, 24 h): no significant changes; ALDH1A1 concentration compared to control ([7]; compound at IC25, 48 h): significant decrease

**Q.** What does the source list for `CNC(=S)NNS(=O)(=O)c1ccccc1` [WZ4, 2-(Benzenesulfonyl)-N-Methylhydrazine-1-Carbothioamide]?
**A.** decrease in viability ([1]; HepG2, 24 h, 1 µM): ~ 4%; decrease in viability ([1]; HepG2, 24 h, 200 µM): ~ 18%; decrease in viability ([1]; HepG2, 48 h, 1 µM): ~ 3%; viability (reduced to) ([1]; HepG2, 48 h, 50 µM): ~ 69%; decrease in viability ([2]; 24 h, all concentrations tested (1–500 µM)): 10–52%; concentration at which a statistically significant decrease in viability was observed ([2]; 24 h): 1 to 500 µM; decrease in viability ([2]; 48 h, 200 µM): ~ 15%; decrease in viability ([3]; 24 h, across 10–500 µM): 21–56%; decrease in viability ([3]; 48 h, 1 µM): ~ 16%; decrease in viability ([3]; 48 h, across 1–500 µM): 16–82%; TI after 24h ([3]; 24 h): 1.653; TI after 48h ([3]; 48 h): 15.763; TI after 24h ([4]; 24 h): 0.920 and < 1; decrease in viability ([4]; PC3, 24 h, 50 µM): ~ 27%; decrease in viability ([4]; PC3, 48 h, 200 µM): ~ 32%; decrease in viability ([5]; DU145, 48 h, 1 µM): ~ 10%; decrease in viability ([5]; Du145, 24 h, 1 µM): ~ 10%; concentration at which a statistically significant decrease in viability was observed ([5]; Du145, 24 h): 1 to 500 µM; concentration at which a statistically significant decrease in viability was observed ([5]; Du145, 48 h): 1 to 500 µM; TI after 48h ([5]; 48 h): 1.272 and > 1; decrease in viability ([6]; 24 h, 1 µM): ~ 7%; decrease in viability ([6]; 24 h, across 1–500 µM): 7–84%; decrease in viability ([6]; 48 h, 1 µM): ~ 12%; decrease in viability ([6]; 48 h, across 1–500 µM): 12–92%; TI after 24h ([6]; 24 h): 4.537; TI after 48h ([6]; 48 h): 7.390; ALDH1A1 concentration compared to control ([7]; compound at IC25, 24 h): decrease; ALDH1A1 concentration compared to control ([7]; compound at IC25, 48 h): significant decrease

**Q.** What does the source list for `O=S(=O)(NNC(=S)NC1CCCCC1)c1ccccc1` [WZ1, 2-(Benzenesulfonyl)-N-Cyclohexylhydrazine-1-Carbothioamide]?
**A.** decrease in viability ([1]; HepG2, 24 h, 200 µM): ~ 15%; decrease in viability ([1]; HepG2, 48 h, 10 µM): ~ 7%; TI after 24h ([1]; 24 h): 0.003; TI after 48h ([1]; 48 h): 7.442; concentration at which a statistically significant decrease in viability was observed ([2]; 24 h): 200 µM; concentration at which a statistically significant decrease in viability was observed ([2]; 48 h): 200 µM; decrease in viability ([3]; 24 h, 1 µM): ~ 11%; decrease in viability ([3]; 48 h, 1 µM): ~ 15%; TI after 24h ([3]; 24 h): 22.712; TI after 48h ([3]; 48 h): 7.757; TI after 24h ([4]; 24 h): 18.426; TI after 48h ([4]; 48 h): 1.521; decrease in viability ([4]; PC3, 24 h, 50 µM): ~ 11%; concentration at which a statistically significant decrease in viability was observed ([4]; PC3, 48 h, tested 1–500 µM): 10 µM; decrease in viability ([5]; Du145, 24 h, 1 µM): ~ 7%; concentration at which a statistically significant decrease in viability was observed ([5]; Du145, 48 h): 200 µM; TI after 24h ([5]; 24 h): 16.001; TI after 48h ([5]; 48 h): 0.170; decrease in viability ([6]; 24 h, 1 µM): ~ 16%; decrease in viability ([6]; 48 h, 50 µM): ~ 6%; TI after 24h ([6]; 24 h): 14.043; TI after 48h ([6]; 48 h): 0.952; ALDH1A1 concentration compared to control ([7]; compound at IC25, 24 h): decrease

**Q.** Which decrease in viability ([1]; HepG2, 24 h, 200 µM) does the source give for `CCCCCCNC(=S)NNS(=O)(=O)c1ccccc1` [WZ3, 2-(Benzenesulfonyl)-N-Hexylhydrazine-1-Carbothioamide] here?
**A.** The decrease in viability was ~ 31%.

**Q.** What about the decrease in viability ([1]; HepG2, 48 h, 1 µM) of the same compound?
**A.** Its decrease in viability is ~ 7%.

**Q.** What about the “TI after 24h” value ([1]; 24 h) of the same compound?
**A.** Its value is 1.701.

**Q.** What about the “TI after 48h” value ([1]; 48 h) of the same compound?
**A.** The value was 2.426.

**Q.** What about the decrease in viability ([2]; 24 h, 1 µM) of the same compound?
**A.** Its decrease in viability is ~ 12%.

**Q.** What about the “concentration at which a statistically significant decrease in viability was observed” value ([2]; 24 h) of the same compound?
**A.** Its value is 1 to 500 µM.

**Q.** What about the decrease in viability ([2]; 48 h, 500 µM) of the same compound?
**A.** Its decrease in viability is ~ 64%.

**Q.** And the “concentration at which a statistically significant decrease in viability was observed” value ([2]; 48 h)?
**A.** Its value is “no significant change in viability”.

**Q.** What about the decrease in viability ([3]; 24 h, 1 µM) of the same compound?
**A.** Its decrease in viability is ~ 22%.

**Q.** And the decrease in viability ([3]; 24 h, 200 µM)?
**A.** The decrease in viability was ~ 22%.

**Q.** And the decrease in viability ([3]; 48 h, 1 µM)?
**A.** Its decrease in viability is ~ 48%.

**Q.** And the “TI after 24h” value ([3]; 24 h)?
**A.** Its value is 0.078.

**Q.** What about the “TI after 48h” value ([3]; 48 h) of the same compound?
**A.** Its value is 115.134.

**Q.** What about the “TI after 24h” value ([4]; 24 h) of the same compound?
**A.** Its value is 2.291.

**Q.** What about the “viability (reduced to)” value ([4]; PC3, 24 h, 50 µM) of the same compound?
**A.** Its value is ~ 76%.

**Q.** What about the decrease in viability ([4]; PC3, 48 h, 200 µM) of the same compound?
**A.** The decrease in viability was ~ 11%.

**Q.** And the decrease in viability ([5]; Du145, 24 h, 200 µM)?
**A.** Its decrease in viability is ~ 19%.

**Q.** And the decrease in viability ([5]; Du145, 48 h, 50 µM)?
**A.** Its decrease in viability is ~ 6%.

**Q.** What about the “TI after 24h” value ([5]; 24 h) of the same compound?
**A.** Its value is 0.476.

**Q.** What about the decrease in viability ([6]; 24 h, 1 µM) of the same compound?
**A.** Its decrease in viability is ~ 9%.

**Q.** What about the decrease in viability ([6]; 48 h, 1 µM) of the same compound?
**A.** Its decrease in viability is ~ 9%.

**Q.** And the “TI after 24h” value ([6]; 24 h)?
**A.** The value was 1.169.

**Q.** What about the “TI after 48h” value ([6]; 48 h) of the same compound?
**A.** The value was 1.284.

**Q.** And the “ALDH1A1 concentration compared to control” value ([7]; compound at IC25, 24 h)?
**A.** Its value is “increase”.
